{
  "source": "patent US20140335083A1",
  "about": "“METHODS OF TREATMENT AND PREVENTION OF EYE DISEASES” (GLAXO GROUP LIMITED, priority 2011, published 2014)",
  "format_in_all_cases": "in vivo",
  "key": {"[1]": {"system": "spontaneous CNV in JR5558 mice", "test": "JR5558 spontaneous CNV model, CNV area and number by fluorescein angiography", "procedure": "JR5558 mice develop CNV (on an atrophic background) spontaneously with CNV lesions first emerging approximately 12 days after birth. JR5558 mice were intraperitoneally treated with various amounts of a rat anti-mouse VEGF receptor (VEGFR)-2 blocking antibody (MAB4431; R&D systems) or a purified rat non-immune isotype match control IgG2α antibody (R&D systems) starting from P14 for a total of 10 doses in 11 days and CNV development was analyzed by fluorescein angiography (FA) 24 hours after the last dose on P25. For Mice treated with CCR3 inhibitor '994 they were dosed intraperitoneally or by eye drop with various concentrations of the drug starting at P14 for a total of 12 days and CNV development was analyzed by FA 24 hours after the last dose on P26. To study the combination effects of anti-VEGFR2 antibody and CCR3 inhibitor '994, mice were treated intraperitoneally with each material alone or in combination starting from P14 for a total of 10 doses in 11 days and CNV development was analyzed by FA 24 hours after the last dose on P25. Experiments exploring the effects of VEGF-A and CCR3 antagonists on vascular permeability from established CNV lesions, JR5558 mice utilised dosing for only two days after the development of CNV lesions and were treated with various amounts of the VEGFR-2 antibody or CCR3 inhibitor '994, or in combinations on P24 and P25. Fluorescein Angiography (FA) was performed on P26.\nThe pupils of mice were dilated with 2.5% tropicamide (Bausch & Lomb, Rochester, N.Y.) and 0.2 ml of 2% fluorescein sodium (Bausch & Lomb) diluted in water was administered by intraperitoneal injection. A Kowa Genesis-Df fundus camera (Kowa, Tokyo, Japan) was used to obtain fluorescein angiograms at early (90 seconds after fluorescein injection) and late (7 min) phases of dye transit. At the early phase, the vasculature of CNV tissue is clearly defined by the intravascular fluorescein dye. At the late phase, extravascular fluorescein is evident as patches of hyperfluorescence. To quantify the CNV area, Image J program was used to determine the size of each of the hyperfluorescence CNV in each eye with FA images from the early phase. Permeability of each CNV was determined by subtracting the hyper-fluorescent area of early phase (90 second post fluorescein injection) from late phase (7 minutes post fluorescein injection) FA images by using Image J.\nJR5558 mice are a strain of mice with an unidentified genetic defect which causes them to develop spontaneous CNV in both retinae with a predictable time course with the first lesions initiating at about post-natal day 12. As such treatment with CCR3 inhibitor '994 was initiated at day 12 and continued for 12 days at which point animals were examined by retinal fluorescence angiography to quantitate the total CNV lesion load and the total number of CNV lesions present in the retinae. Treatment of animals with CCR3 inhibitor '994 led to suppression of both total lesion area (see, FIG. 3, Table 3) and in the total number of CNV lesions present in the retinae (see, FIG. 3, Table 4) when dosed i.p. at either 8 mg/kg QD or 30 mg/kg QD but not when the dose was 2 mg/kg QD."}, "[2]": {"test": "Exposure after oral versus i.p. dosing in mice", "details": "mouse; oral v i.p."}, "CCR3": {"target": "T1, CCR3 (Mus musculus, UniProt P51678)", "T1 construct": "endogenous in cells; host or cells: juvenile mice in vivo; CCR3-bearing cells, mainly eosinophils", "T1 sequence (P51678 1-359)": "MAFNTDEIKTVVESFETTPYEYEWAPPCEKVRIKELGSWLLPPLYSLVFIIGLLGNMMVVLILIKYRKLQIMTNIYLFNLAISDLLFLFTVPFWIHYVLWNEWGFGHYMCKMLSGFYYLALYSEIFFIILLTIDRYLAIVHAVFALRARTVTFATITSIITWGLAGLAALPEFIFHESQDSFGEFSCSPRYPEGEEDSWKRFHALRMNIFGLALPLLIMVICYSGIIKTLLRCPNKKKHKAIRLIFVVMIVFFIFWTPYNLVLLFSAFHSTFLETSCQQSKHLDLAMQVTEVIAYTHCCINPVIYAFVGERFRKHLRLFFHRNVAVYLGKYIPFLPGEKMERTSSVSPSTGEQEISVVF", "test": "Fractional CCR3 receptor occupancy calculated from blood concentrations in juvenile mice", "procedure": "Following dosing of 8 mg/kg i.p QD CCR3 inhibitor '994 in juvenile mice to mimic exposure effects in JR5558 mice, blood concentration at 24 hrs was calculated for 2 mg/kg i.p, 8 mg.kg i.p and 30 mg/kg i.p. doses by projecting the log linear phase of the PK profile. Blood drug concentrations were then used to determine fractional receptor occupancy using the Langmuir binding isotherm and the pKi for CCR3 inhibitor '994 (estimated in a mouse eosinophil chemotaxis assay). The receptor occupancy values are small over estimates of the true value as the pKi for CCR3 inhibitor '994 was determined in buffer and not blood. The fractional CCR3 receptor occupancy will largely be due to binding to eosinophils as this is the predominant CCR3 bearing cell population. […] This same group also used very small doses of anti-CCR3 antibodies dosed by intravitreal injection to limit laser-induced CNV in mouse models and these very small doses would have very limited impact of fractional receptor occupancy even if they were able to access the systemic circulation. In addition, topical dosing of CCR3 inhibitor '994 as an eye drop formulation was also efficacious in the JR5558 model. […] It is highly likely however that systemic dosing drives exposure of CCR3 antagonist in the eye and ultimately the effect on disease and the exposure in the eye is likely to be a complex function of the systemic exposure and thus an understanding of the systemic pharmacokinetics driving efficacy may be important in profiling systemic therapies."}, "[3]": {"details": "2 mg/kg i.p. QD v Vehicle, 12 days P14-P26, fluorescence angiography"}, "[4]": {"details": "8 mg/kg i.p. QD v Vehicle, 12 days P14-P26, fluorescence angiography"}, "[5]": {"details": "30 mg/kg i.p. QD v Vehicle, 12 days P14-P26, fluorescence angiography"}, "[6]": {"details": "eye drop study, 1 mg/ml, 5 ul eye drop to each eye BID v Vehicle, P14-P26"}, "[7]": {"details": "eye drop study, 8 mg/kg i.p. BID comparator v Vehicle, P14-P26"}, "[8]": {"details": "eye drop study, 10 mg/ml, 5 ul eye drop to each eye BID v Vehicle, P14-P26"}},
  "data": [
    {"smiles": "NC(=O)c1ccc(CNC(=O)NC[C@H]2CN(Cc3ccc(Cl)c(Cl)c3)CCO2)cc1", "note": "[CCR3 inhibitor '994, 4-[[[[[[(2s)-4-[(3,4-dichlorophenyl)methyl]-2-morpholinyl]methyl]-amino]carbonyl]-amino]methyl]benzamide]", "values": [
      {"measurement": "Difference in mean total CNV area per eye", "setting": "[1]; [3]", "result": "−0.0065"},
      {"measurement": "Difference in mean total number of CNV lesions per eye", "setting": "[1]; [3]", "result": "−1.65"},
      {"measurement": "Difference in mean total CNV area per eye", "setting": "[1]; [4]", "result": "−0.0171"},
      {"measurement": "Difference in mean total number of CNV lesions per eye", "setting": "[1]; [4]", "result": "−5.03"},
      {"measurement": "Difference in mean total CNV area per eye", "setting": "[1]; [5]", "result": "−0.0264"},
      {"measurement": "Difference in mean total number of CNV lesions per eye", "setting": "[1]; [5]", "result": "−5.20"},
      {"measurement": "Difference in mean total CNV area per eye", "setting": "[1]; BID study (Table 5), 8 mg/kg BID v Vehicle, 12 days P14-P26, fluorescence angiography", "result": "−0.0214"},
      {"measurement": "Difference in mean number of CNV lesions per eye", "setting": "[1]; BID study (Table 6), 8 mg/kg BID v Vehicle, 12 days P14-P26, fluorescence angiography", "result": "−4.63"},
      {"measurement": "effect on CNV lesion area and total occurring CNV lesions", "setting": "[1]; combination study, 30 mg/kg QD systemic, compared to vehicle", "result": "significant reduction in both CNV lesion area and total occurring CNV lesions"},
      {"measurement": "Difference in mean total CNV area per eye", "setting": "[1]; [6]", "result": "−5442.63"},
      {"measurement": "Difference in mean total number of CNV lesions per eye", "setting": "[1]; [6]", "result": "−2.25"},
      {"measurement": "Difference in mean total CNV area per eye", "setting": "[1]; [7]", "result": "−9853.26"},
      {"measurement": "Difference in mean total number of CNV lesions per eye", "setting": "[1]; [7]", "result": 4.95},
      {"measurement": "Difference in mean total CNV area per eye", "setting": "[1]; [8]", "result": "−8047.55"},
      {"measurement": "Difference in mean total number of CNV lesions per eye", "setting": "[1]; [8]", "result": "−3.96"},
      {"measurement": "reduction in exposure, oral dosing as compared to i.p dosing", "setting": "[2]", "result": 5, "unit": "fold"},
      {"measurement": "fractional CCR3 receptor occupancy", "setting": "CCR3; 2 mg/kg i.p., 24 h trough", "result": 3.1, "unit": "%"},
      {"measurement": "fractional CCR3 receptor occupancy", "setting": "CCR3; 2 mg/kg i.p., at 8 hours", "result": 97.95, "unit": "%"},
      {"measurement": "fractional CCR3 receptor occupancy", "setting": "CCR3; 8 mg/kg i.p., 24 h trough", "result": 11.36, "unit": "%"},
      {"measurement": "fractional CCR3 receptor occupancy", "setting": "CCR3; 8 mg/kg i.p., at 8 hours", "result": 99.48, "unit": "%"},
      {"measurement": "fractional CCR3 receptor occupancy", "setting": "CCR3; 30 mg/kg i.p., 24 h trough", "result": 32.45},
      {"measurement": "fractional CCR3 receptor occupancy", "setting": "CCR3; 30 mg/kg i.p., at 8 hours", "result": 99.86, "unit": "%"}
    ]}
  ]
}
